pKi: −log10 of the molar value.
Assays:
Adenosine deaminase [1] = biological target: T1, Adenosine deaminase (Bos taurus, UniProt P56658); test: Binding affinity against calf intestine adenosine deaminase enzyme
T1 sequence (P56658 whole entry): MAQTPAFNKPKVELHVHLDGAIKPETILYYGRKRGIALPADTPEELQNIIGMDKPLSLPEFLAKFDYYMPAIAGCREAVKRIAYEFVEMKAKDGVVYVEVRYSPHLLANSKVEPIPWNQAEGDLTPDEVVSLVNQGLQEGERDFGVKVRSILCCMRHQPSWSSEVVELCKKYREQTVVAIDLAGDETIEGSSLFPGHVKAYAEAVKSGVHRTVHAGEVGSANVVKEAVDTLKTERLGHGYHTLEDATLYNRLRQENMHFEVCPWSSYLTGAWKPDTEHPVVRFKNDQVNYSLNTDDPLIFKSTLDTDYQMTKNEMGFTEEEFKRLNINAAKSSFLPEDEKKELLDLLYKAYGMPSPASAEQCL

Adenosine deaminase [2] = biological target: T1, Adenosine deaminase; test: Binding affinity against calf intestine adenosine deaminase enzyme; Not Active

pKi (Adenosine deaminase [1])	Ki (Adenosine deaminase [2])	Compound
6.08		CCCCCCC(C(C)O)n1cnc2cncnc21 (stereo not given)
	Not Active	OC[C@H]1O[C@@H](n2cnc3cnccc32)[C@H](O)[C@@H]1O
3.44		Nc1nccc2c1ncn2[C@@H]1O[C@H](CO)[C@@H](O)[C@H]1O
6.80		CCCCCCC(C(C)O)n1cnc2c(N)ccnc21 (stereo not given)
8.00		CCCCCCC(C(C)O)n1cnc2c(N)nccc21 (stereo not given)
4.38		OC[C@H]1OC(n2cnc3cccnc32)[C@H](O)[C@@H]1O (stereo not given in full)
8.15		CCCCCC[C@@H]([C@@H](C)O)n1cnc2c(N)ncnc21 [EHNA]

Compound	pKi (Adenosine deaminase [1])	Ki (Adenosine deaminase [2])
CCCCCCC(C(C)O)n1cnc2cnccc21 (stereo not given)	6.92	
OC[C@H]1O[C@@H](n2cnc3cncnc32)[C@H](O)[C@@H]1O [NEBULARINE]	4.82	
Nc1ccnc2c1ncn2[C@@H]1O[C@H](CO)[C@@H](O)[C@H]1O	6.18	
